# Data published in article PMC10458458, “Characterization of Anticancer Effects of the Analogs of DJ4, a Novel Selective Inhibitor of ROCK and MRCK Kinases” (Pharmaceuticals, 2023).
# Key:
# [1] = test system: A549 cells; experiment: Western blot of cell cycle regulatory proteins; format: cell-based, human
# Procedure: To better understand the anti-proliferative and pro-apoptotic effects of DJ4, expression of key proteins involved in proliferation and apoptosis were determined by a Western blot. A549 cells were treated with 2.5 µM and 10 µM concentrations for 24 h and 48 h. […] We also examined the expression of cyclin D3 and CDK4 (G1/S cell cycle checkpoint kinase).
# For protein expression studies, MDA-MB-231 cells were treated with indicated concentrations of DJ4 for 24 h. Additionally, A549 cells were treated for 24 h and 48 h. Cell lysate preparation, protein estimation, and Western blot analysis was performed as per the procedure reported earlier. The blots were probed with cleaved caspase 7 (#9492, Cell Signaling, Danvers, MA, USA), GAPDH (#97166, Cell Signaling, Danvers, MA, USA), β-Actin (#3700, Cell Signaling, Danvers, MA, USA), pErk (#5726, Cell Signaling, Danvers, MA, USA), p21 ^WAF1/CIP1 (#60480, Cell Signaling, Danvers, MA, USA), cyclinD3 (#2936, Cell Signaling, Danvers, MA, USA), CDK4 (#23972, Cell Signaling, Danvers, MA, USA), cleaved PARP (#32563, Cell Signaling, Danvers, MA, USA), pan Erk (#23887, Cell Signaling, Danvers, MA, USA), pMYPT1 (Thr853, # SAB4503944, Millipore, Inc., Burlington, MA, USA) and PCNA (#sc-56, Santa Cruz Biotechnology, Inc., Dallas, TX, USA) antibodies.
# [2] = target: ROCK1 (Homo sapiens, UniProt Q13464); experiment: KINOMEscan competition binding assay; set-up: purchased DiscoverX Corporation (Lead Hunter Discovery Services, KINOMEscan); settings: ROCK1, 10 µM
# Source text: (§1) To examine specificity of DJ4 to different human kinases, we performed a KINOMEscan profiling assay (DiscoverX, Fremont, CA, USA). The KINOMEscan assay consists of a panel of more than 480 kinases of different classes (TK/TKL/STE/CK1/AGC/CAMK/CMGC/others), including clinically relevant mutants, atypical kinases, lipid, and pathogen kinases. […] However, we also recognized the limitations of DJ4 that preclude its clinical development and the need for further optimization of the DJ4 chemotype.
# (§2) The KINOMEscan®, in vitro competition binding assay, was performed by Lead Hunter Discovery Services (DiscoverX Corporation, Fremont, CA, USA) to determine the kinase specificity of DJ4, a novel kinase inhibitor [19, 44]. The KINOMEscan® panel consists of more than 480 kinases, including clinically relevant mutants, lipid, atypical, and pathogen kinases, plus a growing panel of activation-state specific assays. The primary screen was performed using a single concentration of 10 µM, and the results for DJ4 binding interactions are reported as percent of control (%Ctrl). The %Ctrl is calculated as follows: [(DJ4 signal-positive control signal)/(negative control DMSO signal-positive control signal)] x […]. The human kinome tree annotation for DJ4 is plotted with Reaction Biology’s Kinase Mapper and KinMap web interface tool http://kinhub.org/kinmap (accessed on 09 January 2023).
# [3] = target: ROCK2 (Homo sapiens, UniProt O75116); experiment: KINOMEscan competition binding assay; set-up: purchased DiscoverX Corporation (Lead Hunter Discovery Services, KINOMEscan); settings: ROCK2, 10 µM
# Source text: as §1, §2
# Sequence of ROCK2 (O75116 whole entry): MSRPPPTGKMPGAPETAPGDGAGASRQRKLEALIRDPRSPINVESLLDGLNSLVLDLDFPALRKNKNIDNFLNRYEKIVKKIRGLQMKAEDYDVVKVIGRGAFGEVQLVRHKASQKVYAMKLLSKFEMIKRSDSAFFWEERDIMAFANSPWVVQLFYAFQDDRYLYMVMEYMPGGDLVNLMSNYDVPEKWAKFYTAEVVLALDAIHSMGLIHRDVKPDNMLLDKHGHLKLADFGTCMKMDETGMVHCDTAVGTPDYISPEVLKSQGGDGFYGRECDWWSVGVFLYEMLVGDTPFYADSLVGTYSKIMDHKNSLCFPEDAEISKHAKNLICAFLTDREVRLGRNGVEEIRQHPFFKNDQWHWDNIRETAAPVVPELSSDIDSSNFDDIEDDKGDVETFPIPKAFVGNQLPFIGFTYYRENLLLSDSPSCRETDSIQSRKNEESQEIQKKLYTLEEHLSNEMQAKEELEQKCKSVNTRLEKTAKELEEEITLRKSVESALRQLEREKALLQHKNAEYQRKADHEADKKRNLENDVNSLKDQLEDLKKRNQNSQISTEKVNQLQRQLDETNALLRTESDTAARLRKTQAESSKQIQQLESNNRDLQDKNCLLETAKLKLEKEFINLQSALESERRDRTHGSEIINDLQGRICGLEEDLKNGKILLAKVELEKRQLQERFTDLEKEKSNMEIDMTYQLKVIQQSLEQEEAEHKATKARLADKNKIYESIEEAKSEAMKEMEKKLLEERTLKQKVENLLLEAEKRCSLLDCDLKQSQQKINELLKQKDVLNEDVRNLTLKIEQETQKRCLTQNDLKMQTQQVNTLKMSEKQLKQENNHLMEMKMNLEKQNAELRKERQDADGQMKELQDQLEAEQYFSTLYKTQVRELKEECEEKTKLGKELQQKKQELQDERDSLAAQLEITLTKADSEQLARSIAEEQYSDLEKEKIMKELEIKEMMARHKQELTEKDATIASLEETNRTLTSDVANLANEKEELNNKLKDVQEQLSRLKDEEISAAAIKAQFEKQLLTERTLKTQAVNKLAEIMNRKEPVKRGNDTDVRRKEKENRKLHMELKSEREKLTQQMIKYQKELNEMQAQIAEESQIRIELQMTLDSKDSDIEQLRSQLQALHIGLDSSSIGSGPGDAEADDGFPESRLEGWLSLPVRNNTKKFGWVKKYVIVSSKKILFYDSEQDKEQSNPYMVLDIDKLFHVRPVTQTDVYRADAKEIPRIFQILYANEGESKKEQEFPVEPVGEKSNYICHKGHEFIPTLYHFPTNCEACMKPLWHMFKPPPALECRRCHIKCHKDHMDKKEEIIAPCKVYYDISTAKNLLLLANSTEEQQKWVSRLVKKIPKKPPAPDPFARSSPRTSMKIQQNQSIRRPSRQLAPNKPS
# Sequence of ROCK1 (Q13464 whole entry): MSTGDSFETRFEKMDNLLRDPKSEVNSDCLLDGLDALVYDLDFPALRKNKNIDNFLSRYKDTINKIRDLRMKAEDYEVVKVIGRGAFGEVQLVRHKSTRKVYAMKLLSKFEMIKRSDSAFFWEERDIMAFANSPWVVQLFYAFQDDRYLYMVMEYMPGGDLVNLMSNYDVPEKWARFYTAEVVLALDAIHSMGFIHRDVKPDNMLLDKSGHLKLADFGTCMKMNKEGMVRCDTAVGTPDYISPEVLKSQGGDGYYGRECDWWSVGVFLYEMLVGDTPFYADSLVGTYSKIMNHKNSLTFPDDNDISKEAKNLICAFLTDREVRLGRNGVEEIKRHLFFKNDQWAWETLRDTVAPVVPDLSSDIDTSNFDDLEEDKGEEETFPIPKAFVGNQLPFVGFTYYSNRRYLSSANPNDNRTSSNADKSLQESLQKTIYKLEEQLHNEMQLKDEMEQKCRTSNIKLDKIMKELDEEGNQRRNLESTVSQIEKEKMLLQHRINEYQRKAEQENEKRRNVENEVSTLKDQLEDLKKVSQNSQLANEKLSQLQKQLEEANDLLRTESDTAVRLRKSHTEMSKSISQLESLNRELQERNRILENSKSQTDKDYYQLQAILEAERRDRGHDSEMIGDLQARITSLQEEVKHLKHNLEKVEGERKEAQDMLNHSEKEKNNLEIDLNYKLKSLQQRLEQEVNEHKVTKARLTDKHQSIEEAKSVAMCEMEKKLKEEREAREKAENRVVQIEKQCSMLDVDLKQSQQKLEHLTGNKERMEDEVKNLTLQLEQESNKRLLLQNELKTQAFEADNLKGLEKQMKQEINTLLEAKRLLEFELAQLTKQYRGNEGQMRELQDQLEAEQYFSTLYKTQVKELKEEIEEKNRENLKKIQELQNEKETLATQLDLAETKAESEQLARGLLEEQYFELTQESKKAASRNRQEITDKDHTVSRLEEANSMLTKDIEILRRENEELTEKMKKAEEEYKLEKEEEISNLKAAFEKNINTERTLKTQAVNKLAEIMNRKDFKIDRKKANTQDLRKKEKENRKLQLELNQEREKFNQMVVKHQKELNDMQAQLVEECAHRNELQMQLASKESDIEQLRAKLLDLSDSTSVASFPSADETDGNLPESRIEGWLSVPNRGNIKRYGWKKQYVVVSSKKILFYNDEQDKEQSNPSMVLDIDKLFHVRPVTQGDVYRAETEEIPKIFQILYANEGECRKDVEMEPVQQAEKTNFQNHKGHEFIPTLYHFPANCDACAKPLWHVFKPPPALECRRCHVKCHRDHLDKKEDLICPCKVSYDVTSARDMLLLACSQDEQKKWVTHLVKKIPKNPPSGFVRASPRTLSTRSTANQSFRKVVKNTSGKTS
smiles,measurement,setting,value
O=C1N/C(=N\CCc2ccccc2)S/C1=C/c1c[nH]c2ncccc12 [DJ4],activation of Erk1/2 (phospho-Erk; pERK),"[1]; A549, 2.5 µM, 24 h",significantly induced activation
same,expression of CDK4,"[1]; A549, 2.5 µM, 24 h",upregulated
same,expression of cyclin D3,"[1]; A549, 2.5 µM, 24 h",upregulated
same,expression of p21 WAF1/CIP1,"[1]; A549, 2.5 µM, 24 h",upregulated
same,"expression of p21 WAF1/CIP1, pERK, CDK4, and cyclin D3","[1]; A549, 10 µM, 24 h and 48 h",decreased below vehicle treatment levels
same,inhibition at 10 µM,[2],> 98%
same,inhibition at 10 µM,[3],> 98%
